Earlier results, collected in US11345964B2, “BCR-ABL truncation mutations” (Quest Diagnostics Investments LLC, priority 2009, dated 2022).
Where a name gives a salt, the structure may show the parent alone. Read-outs that look alike come from different tables or passages of the source.

Tested on: patients with myeloproliferative diseases
Settings: imatinib therapy

Cc1ccc(NC(=O)c2ccc(CN3CCN(C)CC3)cc2)cc1Nc1nccc(-c2cccnc2)n1 [imatinib, imatinib mesylate]
Primary resistance (failure to achieve any hematologic response) rate (accelerated phase): 9%
Secondary resistance (hematologic recurrence) rate (accelerated phase): 32%
Primary resistance (failure to achieve any hematologic response) rate (blast phase): 51%
Secondary resistance (hematologic recurrence) rate (blast phase): 41%
Primary resistance (failure to achieve any hematologic response) rate (chronic phase): 3%
Secondary resistance (hematologic recurrence) rate (chronic phase): 22%
